From US9850247B2 (Almac Discovery Limited, priority 2013, dated 2017)

Tests used:
[1] = molecular target: T1, Wee-1 kinase (Homo sapiens, UniProt P30291); assay: Measurement of Wee-1 kinase activity (ADP-Glo luminescent kit); format: biochemical
T1 construct: purchased Invitrogen PV3817
Procedure, shortened: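 Activated Wee-1 was pre-incubated 30 min at RT with compound in 40 mM Tris-HCl, 20 mM MgCl2, 0.1 mg/mL BSA and 2 mM DTT. The reaction was started with an aliquot of 2.0 μg/mL poly(Lys,Tyr 4:1) plus 30 μM ATP and run 1 h at RT. ADP-Glo luminescence gave IC50 by non-linear fit.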

[2] = CLint estimates using human liver microsomes (Method 4); format: in vitro ADME; details: pH 7.4, 1 μM compound, read-out: Mics - CLint (HLM CLint)
Procedure, shortened: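 Compound at 1 μM (0.1% DMSO) incubated with human liver microsomes (0.5 mg protein/mL) in 0.1 M phosphate pH 7.4 at 37 °C, started with 1 mM NADPH. Samples taken 2–50 min, quenched in methanol, measured by LC/MS/MS (MRM). Half-life and CLint derived from the slope of ln peak area versus time.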

T1 sequence (P30291 whole entry): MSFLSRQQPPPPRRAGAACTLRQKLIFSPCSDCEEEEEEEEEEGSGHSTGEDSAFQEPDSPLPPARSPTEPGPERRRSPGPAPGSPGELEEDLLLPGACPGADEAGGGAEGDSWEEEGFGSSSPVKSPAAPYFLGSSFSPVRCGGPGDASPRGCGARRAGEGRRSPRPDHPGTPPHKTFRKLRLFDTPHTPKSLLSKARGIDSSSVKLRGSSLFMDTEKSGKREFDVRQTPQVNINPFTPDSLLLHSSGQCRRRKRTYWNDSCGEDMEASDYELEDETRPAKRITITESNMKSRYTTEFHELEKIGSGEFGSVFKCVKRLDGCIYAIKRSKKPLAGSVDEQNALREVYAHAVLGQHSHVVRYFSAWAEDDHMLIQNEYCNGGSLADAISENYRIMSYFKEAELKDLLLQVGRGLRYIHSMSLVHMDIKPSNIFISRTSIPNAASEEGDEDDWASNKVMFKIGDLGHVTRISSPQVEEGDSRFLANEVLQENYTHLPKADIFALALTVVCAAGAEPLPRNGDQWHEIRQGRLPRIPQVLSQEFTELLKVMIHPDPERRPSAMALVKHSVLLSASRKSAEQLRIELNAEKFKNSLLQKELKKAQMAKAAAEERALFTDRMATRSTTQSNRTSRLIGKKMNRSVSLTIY

| Compound | IC50 [1] | microsomal CLint at 1 μM [2] |
| --- | --- | --- |
| CN1CN(c2c(Cl)cccc2Cl)C(=O)c2cnc(Nc3ccc(N4CCN[C@@H](CO)C4)cc3)nc21 [Example 19, (R)-3-(2,6-Dichlorophenyl)-7-((4-(3-(hydroxymethyl)piperazin-1-yl)phenyl)amino)-1-methyl-2,3-dihydropyrimido[4,5-d]pyrimidin-4(1H)-one] | ≤ 10 nM | ≤ 15 µL/min/mg |
| C[C@@H]1CN(c2ccc(Nc3ncc4c(n3)N(C)CN(c3c(Cl)cccc3Cl)C4=O)cc2F)CCN1 [Example 43, (R)-3-(2,6-dichlorophenyl)-7-((3-fluoro-4-(3-methylpiperazin-1-yl)phenyl)amino)-1-methyl-2,3-dihydropyrimido[4,5-d]pyrimidin-4(1H)-one] | ≤ 10 nM | ≤ 15 µL/min/mg |
| COC[C@H]1CN(c2ccc(Nc3ncc4c(n3)N(C)CN(c3c(Cl)cccc3Cl)C4=O)cc2)CCN1 [Example 60, (R)-3-(2,6-dichlorophenyl)-7-((4-(3-(methoxymethyl)piperazin-1-yl)phenyl)amino)-1-methyl-2,3-dihydropyrimido[4,5-d]pyrimidin-4(1H)-one] | 10 to 100 nM | ≤ 15 µL/min/mg |
| COCc1cc(Nc2ncc3c(n2)N(C)CN(c2c(Cl)cccc2Cl)C3=O)ccc1N1CCNCC1 [Example 31, 3-(2,6-dichlorophenyl)-7-((3-(methoxymethyl)-4-(piperazin-1-yl)phenyl)amino)-1-methyl-2,3-dihydropyrimido[4,5-d]pyrimidin-4(1H)-one] | 10 to 100 nM | ≤ 15 µL/min/mg |
| C[C@H]1CN(c2ccc(Nc3ncc4c(n3)N(C)CN(c3c(Cl)cccc3Cl)C4=O)cc2)CCN1 [Example 17, (S)-3-(2,6-Dichlorophenyl)-1-methyl-7-((4-(3-methylpiperazin-1-yl)phenyl)amino)-2,3-dihydropyrimido[4,5-d]pyrimidin-4(1H)-one] | 10 to 100 nM | 15 to 50 µL/min/mg |
| COCc1cc(Nc2ncc3c(n2)N(C)CN(c2c(Cl)cccc2Cl)C3=O)ccc1N1CCN[C@H](C)C1 [Example 59, (R)-3-(2,6-dichlorophenyl)-7-((3-(methoxymethyl)-4-(3-methylpiperazin-1-yl)phenyl)amino)-1-methyl-2,3-dihydropyrimido[4,5-d]pyrimidin-4(1H)-one] | 10 to 100 nM | ≤ 15 µL/min/mg |
| CN1CN(c2c(F)cccc2Cl)C(=O)c2cnc(Nc3ccc(N4CCNCC4)cc3)nc21 [Example 25, 3-(2-Chloro-6-fluorophenyl)-1-methyl-7-((4-(piperazin-1-yl)phenyl)amino)-2,3-dihydropyrimido[4,5-d]pyrimidin-4(1H)-one] | 10 to 100 nM | ≤ 15 µL/min/mg |
| C[C@@H]1CN(c2ccc(Nc3ncc4c(n3)N(C)CN(c3c(Cl)cccc3Cl)C4=O)cc2)[C@@H](C)CN1 [Example 80, 3-(2,6-dichlorophenyl)-7-((4-((2S,5R)-2,5-dimethylpiperazin-1-yl)phenyl)amino)-1-methyl-2,3-dihydropyrimido[4,5-d]pyrimidin-4(1H)-one] | ≤ 10 nM | 15 to 50 µL/min/mg |
| CN1CN(c2c(Cl)cccc2Cl)C(=O)c2cnc(Nc3ccc(N4CC5CCC(C4)N5)cc3)nc21 [Example 74, 7-((4-(3,8-diazabicyclo[3.2.1]octan-3-yl)phenyl)amino)-3-(2,6-dichlorophenyl)-1-methyl-2,3-dihydropyrimido [4,5-d]pyrimidin-4(1H)-one] | 10 to 100 nM | ≤ 15 µL/min/mg |
| CN1CN(c2c(Cl)cccc2Cl)C(=O)c2cnc(Nc3ccc(N4CCN(C(=O)CN)CC4)cc3)nc21 [Example 13, 7-((4-(4-(2-Aminoacetyl)piperazin-1-yl)phenyl)amino)-3-(2,6-dichlorophenyl)-1-methyl-2,3-dihydropyrimido[4,5-d]pyrimidin-4(1H)-one] | ≤ 10 nM | ≤ 15 µL/min/mg |
| C[C@@H]1CN[C@@H](C)CN1c1ccc(Nc2ncc3c(n2)N(C)CN(c2c(Cl)cccc2Cl)C3=O)cc1 [Example 40, 3-(2,6-dichlorophenyl)-7-((4-((2R,5S)-2,5-dimethylpiperazin-1-yl)phenyl)amino)-1-methyl-2,3-dihydropyrimido[4,5-d]pyrimidin-4(1H)-one] | ≤ 10 nM | ≤ 15 µL/min/mg |
